Source: PMC11379708, “Divergent mechanisms of steroid inhibition in the human ρ1 GABAA receptor” (Nature Communications, 2024)
Counter-ions that a name gives are not always drawn.

Experiments:
human ρ1 GABAA receptor [1] = target: T1, human ρ1 GABAA receptor (Homo sapiens, UniProt P24046); test: cryo-EM structure ([…] Å); TEVC inhibition in Xenopus oocytes; F283Y/F284Y ablates inhibition; assay type: cell-based
T1 construct: gene GABRR1; ρ1-EM (flexible N-terminal region and intracellular M3-M4 loop deleted), homopentamer in saposin nanodiscs

human ρ1 GABAA receptor [2] = target: T1, human ρ1 GABAA receptor; test: cryo-EM structure with GABA; TEVC voltage-dependent block (Woodhull fit); assay type: cell-based

T1 sequence (P24046 22-479): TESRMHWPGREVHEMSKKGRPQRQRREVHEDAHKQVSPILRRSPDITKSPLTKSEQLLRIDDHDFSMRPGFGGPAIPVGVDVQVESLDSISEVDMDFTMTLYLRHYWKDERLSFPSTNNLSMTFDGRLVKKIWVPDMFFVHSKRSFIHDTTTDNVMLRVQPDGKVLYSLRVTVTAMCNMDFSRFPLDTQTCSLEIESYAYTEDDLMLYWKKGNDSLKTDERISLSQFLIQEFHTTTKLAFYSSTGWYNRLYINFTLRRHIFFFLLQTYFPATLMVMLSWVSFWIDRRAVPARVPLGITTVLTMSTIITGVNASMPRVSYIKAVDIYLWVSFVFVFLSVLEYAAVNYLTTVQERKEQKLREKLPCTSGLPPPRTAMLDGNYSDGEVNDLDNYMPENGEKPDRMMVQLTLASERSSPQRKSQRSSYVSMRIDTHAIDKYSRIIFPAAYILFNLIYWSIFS

## C[C@]12CC[C@@H]3c4ccc(O)cc4CC[C@H]3[C@@H]1CC[C@@H]2O [E2, β-estradiol]
Human ρ1 GABAA receptor [1]
  IC50: ~30 µM

## CC(=O)C1CCC2C3CC=C4CC(OS(=O)(=O)O)CCC4(C)C3CCC12C (centres unmarked) [PS, pregnenolone sulfate]
Human ρ1 GABAA receptor [2]
  Kd: 36.3 µM
